According to patent US10500164B2, “Nanoparticle-based combinatorial therapy” (The American University in Cairo, priority 2014, dated 2019):

Assay: In-vitro drug release of DOX in Tris-HCl buffer pH 5 and PBS pH 7.4
Type: physicochemical
Settings: free DOX solution control, over 4 hrs
Protocol: FIGS. 7A-B show according to an exemplary embodiment of the invention in-vitro release of free DOX, and DOX-NCs in Tris-HCl buffer pH 5 (FIG. 7A) and PBS pH 7.4 (FIG. 7B).
Since the release behavior of DOX-NCs at the desired site is of a great importance for formulating an ideal cancer-targeted drug delivery system, in-vitro release studies were performed at two different pH values were tested: pH 7.4, which mimics the pH of the blood stream and pH 5, which mimics the pH of the endosomes within cancer cells. In-vitro results […] that DOX-AgNCs, DOX-Ag/PVA NCs, DOX-Ag/PEG NCs and DOX-Ag/PVP NCs released 96.6%, 97.4%, 98% and 96.4% of DOX at pH 5. While at pH 7.4, the release percentages of DOX were 73.4%, 54.3%, 59.8% and 68.5% over the course of 6 hrs. […] In-vitro release is shown of free DOX, and DOX-NCs in Tris-HCl buffer pH 5 (FIG. 7A) and PBS pH 7.4 (FIG. 7B).

## COc1cccc2c1C(=O)c1c(O)c3c(c(O)c1C2=O)C[C@@](O)(C(=O)CO)C[C@@H]3O[C@H]1C[C@H](N)[C@H](O)[C@H](C)O1 [free DOX, Doxorubicin]
pH 5
  release percentage of DOX: 97.4%
pH 7.4
  release percentage of DOX: 67.7%
